Patent publication US10080756B2, “Combination methods for treating cancers” (Gilead Sciences, Inc., priority 2014, dated 2018)
Like-named read-outs stand apart in the source and are kept apart here. Blank lines part the entries; values can stand above or below the compound they belong to.

What was measured:
[1] = tested on: SU-DHL-2; experiment: Cell Titer Glo viability assay, SU-DHL-2; format: cell-based; details: Homo sapiens, read-out: Inhibition of Viability, EC50
Experimental: (§1) All procedures were performed at Gilead Sciences, Inc. in Branford, The compound of formula (I), cyclophosphamide, doxorubicin and vincristine sulfate were dissolved in DMSO to prepare stock solutions that were serially diluted three-fold in DMSO in a 96 well plate format at 1000× so the final starting assay concentrations tested would be 10 μM, 200 μM, 10 μM, and 1 μM respectively, for each compound. Compound plates were diluted 1:100 in RPMI without serum or additives creating a 10× stock. Cells were seeded into a 96-well plate at 10,000-20,000 cells per well in 100 μl of growth media appropriate to the cell line supplemented with 100 U/L penicillin-streptomycin. OCI-Ly3, OCI-Ly4 and OCI-Ly7 were grown in Iscove's+20% FBS, OCI-Ly19 was grown in alphaMEM+20% FBS, and all other cell lines were grown in RPMI+10% FBS. To each well, 11 μl of 10× compound was added in a final concentration of 0.1% DMSO and cells were incubated at 37° C. in 5% CO2 for 72 hours. Cell viability was assessed with Cell Titer Glo (Promega, Madison, Wis.) following the manufacturer's protocol on an Envision plate reader (Perkin Elmer, Waltham, Mass.). EC50 values were determined using a four parameter variable slope model with GraphPad Prism 6.0 software. All EC50 values represent mean values of from duplicate dose response curves.

[2] = tested on: SU-DHL-4; experiment: Cell Titer Glo viability assay, SU-DHL-4; format: cell-based; details: Homo sapiens, read-out: Inhibition of Viability, EC50
Experimental: as §1

[3] = tested on: SU-DHL-6; experiment: Cell Titer Glo viability assay, SU-DHL-6; format: cell-based; details: Homo sapiens, read-out: Inhibition of Viability, EC50
Experimental: as §1

[4] = tested on: SU-DHL-10; experiment: Cell Titer Glo viability assay, SU-DHL-10; format: cell-based; details: Homo sapiens, read-out: Inhibition of Viability, EC50
Experimental: as §1

[5] = tested on: Karpas 422; experiment: Cell Titer Glo viability assay, Karpas 422; format: cell-based; details: Homo sapiens, read-out: Inhibition of Viability, EC50
Experimental: as §1

[6] = tested on: OCI-LY3; experiment: Cell Titer Glo viability assay, OCI-LY3; format: cell-based; details: Homo sapiens, read-out: Inhibition of Viability, EC50
Experimental: as §1

[7] = tested on: OCI-LY4; experiment: Cell Titer Glo viability assay, OCI-LY4; format: cell-based; details: read-out: Inhibition of Viability, EC50
Experimental: as §1

[8] = tested on: OCI-LY7; experiment: Cell Titer Glo viability assay, OCI-LY7; format: cell-based; details: Homo sapiens, read-out: Inhibition of Viability, EC50
Experimental: as §1

[9] = tested on: OCI-LY19; experiment: Cell Titer Glo viability assay, OCI-LY19; format: cell-based; details: Homo sapiens, read-out: Inhibition of Viability, EC50
Experimental: as §1

[10] = tested on: Pfeiffer; experiment: Cell Titer Glo viability assay, Pfeiffer; format: cell-based; details: Homo sapiens, read-out: Inhibition of Viability, EC50
Experimental: as §1

[11] = tested on: Mino; experiment: Cell Titer Glo viability assay, Mino; format: cell-based; details: Homo sapiens, read-out: Inhibition of Viability, EC50
Experimental: as §1

[12] = tested on: KMS-11; experiment: Cell Titer Glo viability assay, KMS-11; format: cell-based; details: Homo sapiens, read-out: Inhibition of Viability, EC50
Experimental: as §1

[13] = tested on: MM1.S; experiment: Cell Titer Glo viability assay, MM1.S; format: cell-based; details: Homo sapiens, read-out: Inhibition of Viability, EC50
Experimental: as §1

[14] = tested on: OPM-2; experiment: Cell Titer Glo viability assay, OPM-2; format: cell-based; details: Homo sapiens, read-out: Inhibition of Viability, EC50
Experimental: as §1

[15] = tested on: RPMI-8266; experiment: Cell Titer Glo viability assay, RPMI-8266; format: cell-based; details: read-out: Inhibition of Viability, EC50
Experimental: as §1

[16] = tested on: WSU-FSCCL; experiment: Cell Titer Glo viability assay, WSU-FSCCL; format: cell-based; details: read-out: Inhibition of Viability, EC50
Experimental: as §1

[17] = tested on: WSU-NHL; experiment: Cell Titer Glo viability assay, WSU-NHL; format: cell-based; details: Homo sapiens, read-out: Inhibition of Viability, EC50
Experimental: as §1

[18] = Cell Titer Glo viability assay, summary over all cell lines tested; format: cell-based; details: B-cell; range over the 17 cell lines of Table 1; read-out: EC50 values to inhibit cell viability, range over cell lines
Experimental: as §1

[19] = tested on: DHL-10; experiment: Cell Titer Glo viability assay, DHL-10, alone or with compound of Formula I (Example 3); details: for Fold shift: EC50 alone vs +300 nM Compound of Formula I
Experimental: All procedures were performed at Gilead Sciences, Inc. in Branford, Conn. […] Compound plates were diluted 1:100 in RPMI without serum or additives but containing either 1% DMSO or 3 μM of the compound of Formula I creating a 10× stock. The DLBCL cell line, DHL-10 was plated at 10,000 cells per well in RPMI supplemented with 10% FBS and 100 U/L penicillin-streptomycin. To each well containing cells, 11 μl of 10× compound mixture in serum-free media was added in a final concentration of 0.2% DMSO and cells were incubated at 37° C. in 5% CO2 for 72 hours. Cell viability was assessed using Cell Titer Glo (CTG, Promega, Madison, Wis.) following the manufacturer's protocol on an Envision plate reader (Perkin Elmer, Waltham, Mass.). CTG signals were recorded for individual compound treatments and combinations. EC50 values were determined using a four parameter variable slope model with GraphPad Prism 6.0 software.

[20] = in vivo; cited from earlier work
[21] = tested on: 10 diffuse large B-cell lymphoma (DLBCL), 4 multiple myeloma (MM), 2 follicular lymphoma (FL), and 1 mantle cell lymphoma (MCL) cell lines; experiment: Cell Titer Glo viability assay, summary over all cell lines tested; format: cell-based; details: at concentrations <10000 nM
Experimental: as §1

[22] = Homo sapiens, 72 h, read-out: Inhibition of cell viability EC50, No Compound of Formula I
[23] = read-out: Inhibition of cell viability EC50, +300 nM Compound of Formula I, DHL-10, in combination with 300 nM compound of Formula I, 72 hours

EC50 ([1]; SU-DHL-2, DLBCL, single agent, 72 hours): 216 nM | EC50 ([2]; SU-DHL-4, DLBCL, single agent, 72 hours): 215 nM | EC50 ([3]; SU-DHL-6, DLBCL, single agent, 72 hours): 125 nM | EC50 ([4]; SU-DHL10, SU-DHL-10, DLBCL, single agent, 72 hours): 195 nM | EC50 ([5]; Karpas 422, DLBCL, single agent, 72 hours): 305 nM | EC50 ([6]; OCI-LY3, DLBCL, single agent, 72 hours): 26 nM | EC50 ([7]; OCI-LY4, DLBCL, single agent, 72 hours): 37 nM | EC50 ([8]; OCI-LY7, DLBCL, single agent, 72 hours): 199 nM | EC50 ([9]; OCI-LY19, DLBCL, single agent, 72 hours): 3.1 nM | EC50 ([13]; MM, single agent, 72 hours): 66 nM
SMILES: COc1cccc2c1C(=O)c1c(O)c3c(c(O)c1C2=O)C[C@@](O)(C(=O)CO)C[C@@H]3O[C@H]1C[C@H](N)[C@H](O)[C@H](C)O1 [Doxorubicin, doxorubicin]
EC50 ([10]; DLBCL, single agent, 72 hours): 198 nM | EC50 ([11]; Mino, MCL, single agent, 72 hours): 114 nM | EC50 ([12]; KMS-11, MM, single agent, 72 hours): 469 nM | EC50 ([14]; OPM-2, MM, single agent, 72 hours): 557 nM | EC50 ([15]; RPMI8266, RPMI-8266, MM, single agent, 72 hours): 176 nM | EC50 ([16]; WSU-FSCCL, FL, single agent, 72 hours): 52 nM | EC50 ([17]; FL, single agent, 72 hours): 128 nM | EC50 [18]: 3.1 to 557 nM | EC50 [19, 22]: 152 nM | EC50 [19, 23]: 161 nM

SMILES: COc1ccc(/C=C\c2cc(OC)c(OC)c(OC)c2)cc1O [Combretastatin A4, combretastatin A4]
Fold shift ([19]; DHL-10): 1.2 | EC50 [19, 23]: 4.8 nM | EC50 ([19]; read-out: Inhibition of cell viability EC50, No Compound of Formula I, DHL-10, compound alone, 72 hours): 5.9 nM

SMILES: CC[C@]1(O)C[C@@H]2CN(CCc3c([nH]c4ccccc34)[C@@](C(=O)OC)(c3cc4c(cc3OC)N(C)[C@H]3[C@@](O)(C(N)=O)[C@H](O)[C@]5(CC)C=CCN6CC[C@]43[C@@H]65)C2)C1 [Vindesine, vindesine]
serum half-life [20]: 24 h

SMILES: COc1cc2c(c(OC)c1OC)-c1ccc(OC)c(=O)cc1[C@@H](NC(C)=O)CC2 [Colchicine, colchicine]
Fold shift ([19]; DHL-10): 1.0 | EC50 [19, 22]: 13.5 nM | EC50 [19, 23]: 14.2 nM

SMILES: CC(=O)O[C@H]1C(=O)[C@@]2(C)[C@H]([C@H](OC(=O)c3ccccc3)[C@]3(O)C[C@H](OC(=O)[C@H](O)[C@@H](NC(=O)c4ccccc4)c4ccccc4)C(C)=C1C3(C)C)[C@]1(OC(C)=O)CO[C@@H]1C[C@@H]2O [Taxol, taxol]
EC50 [19, 22]: 7.1 nM | EC50 [19, 23]: 5.6 nM

SMILES: O=P1(N(CCCl)CCCl)NCCCO1 (centres unmarked) [Cyclophosphamide, cyclophosphamide]
EC50 ([1]; SU-DHL-2, 72 h): > 10000 nM | EC50 ([2]; SU-DHL-4, 72 h): > 10000 nM | EC50 ([3]; SU-DHL-6, 72 h): > 10000 nM | EC50 ([4]; SU-DHL10, 72 h): > 10000 nM | EC50 ([5]; KARPAS-422, 72 h): > 10000 nM | EC50 ([6]; OCI-Ly3, 72 h): > 10000 nM | EC50 ([7]; 72 h): > 10000 nM | EC50 ([8]; OCI-Ly7, 72 h): > 10000 nM | EC50 ([9]; OCI-LY19, 72 h): > 10000 nM | EC50 ([10]; 72 h): > 10000 nM | EC50 ([11]; MINO, 72 h): > 10000 nM | EC50 ([12]; KMS-11, 72 h): > 10000 nM | EC50 ([13]; 72 h): > 10000 nM | EC50 ([14]; OPM-2, 72 h): > 10000 nM | EC50 ([15]; RPMI8266, 72 h): > 10000 nM | EC50 ([16]; 72 h): > 10000 nM | EC50 ([17]; 72 h): > 10000 nM | inhibition of cell viability in any of the cell lines tested [21]: did not show inhibition cell viability
